Measured values published in article PMC2746281 (PLoS ONE, 2009).

How the values were obtained:
[1] = tested on: Salmonella typhimurium and Escherichia coli; settings: cited from earlier work
[2] = tested on: human cord-blood-derived mast cells (CBMC); experiment: FcεRI-mediated degranulation (β-hexosaminidase release) of IgE-anti IgE activated CBMC; format: cell-based; settings: Mast cell, 0.5 h, 30 minutes of stimulation
Method: (§1) (see Supporting Information; Methods S1). […] Assays of β-hexosaminidase release and TNF-α release were made by stimulating the CBMC with 1 µg/ml of goat anti-human IgE (Vector Laboratories) for 30 minutes or 4 hours, respectively. β-hexosaminidase was measured in the supernatant and in the sonicated cell pellets and its net release calculated. For TNF-α determination, the cell-free supernatants were collected by centrifugation and frozen at −80°C until determination of mediator content by the use of a specific ELISA kit according to manufacturer's instructions (Coulter, France). All assays were performed in duplicate and counts were repeated twice for each well.
(§2) Human CBMC were produced by long-term culture of CD34+ progenitors purified from normal cord-blood. […] At the beginning of the culture, rhIL-3 (1 ng/ml) (R&D Systems Europe, France) was also added to induce maximal expansion of haematopoietic progenitors. After 3 days the IL-3 was removed and 4 days later cells were transferred to a complete serum-free medium containing rmSCF at 100 ng/ml, which was renewed every 7 days thereafter. After 8 weeks in culture ≥99% of the cells were identified as being mast cells by May-Grünwald-Giemsa staining of cytocentrifuged samples.

[3] = tested on: human cord-blood-derived mast cells (CBMC); experiment: TNF-α release by IgE-anti IgE-activated CBMC (ELISA); format: cell-based; settings: Mast cell, 4 hours of stimulation
Method: as §1, §2

## Cc1ccc(NC(=O)c2ccc(CN3CCN(C)CC3)cc2)cc1Nc1nccc(-c2cccnc2)n1 [imatinib, reference compound]
[1]
  bacterial reverse mutation test: positive
[2]; 0.1 µM
  inhibition at 0.1 µM: 2%
[2]; 1.0 µM
  inhibition at 1 µM: 8%
[2]; 10 µM
  inhibition at 10 µM: 19%
[3]; 0.1 µM
  inhibition at 0.1 µM: 4%
[3]; 1.0 µM
  inhibition at 1 µM: 24%
[3]; 10 µM
  inhibition at 10 µM: 45%
